Data from patent US20110091570A1, “Compositions and Devices for Antisepsis and Anticoagulation” (priority 2008, published 2011).
“And” between values parts separate entries of the source, which are not always exact repeats. Identical values can stand only once.

What was measured:
[1] = tested on: Staphylococcus aureus, ATCC 25923; test: Bactericidal activity of NCT with heparin in human whole blood; assay type: cell-based; conditions: 37° C.
Experimental: FIG. 10 presents a plot of bactericidal activity of 1% NCT with 125 IE/mL heparin in human blood against Staphylococcus aureus (ATCC 25923) at […] and 37° C. Mean values±standard error of the mean of three independent experiments. P<0.01 between NCT and control samples.
Bacteria (Staphylococcus aureus, ATCC 25923 and Escherichia coli, ATCC 11229) grown in tryptic soy broth overnight were washed twice in saline and suspended in human whole blood containing 125 IE/mL heparin. Different volumes of a saline solution of NCT sodium salt were added to the suspension so that the test samples contained 10%, 25%, 50%, and 75% blood. In addition, 100% blood plus 125 IE/mL heparin was tested at which NCT was directly dissolved in blood. The final NCT concentration after mixing blood and NCT solutions was 1% in all samples. Controls contained 100% blood plus 125 IE/mL heparin and 10%, 25%, 50% and 75% blood, respectively, in saline, plus 125 IE/mL heparin without NCT. All of the solutions were incubated at 37° C. and pH 7.36-7.44 (the pH of blood). After 1, 3, 5, 10, 15, 30, 45 and 60 minutes, aliquots of 100 μL were removed and diluted tenfold or 100-fold in 0.6% sodium thiosulfate solution to inactivate the NCT. Aliquots (50 μL) of these dilutions were spread on tryptic soy agar plates. The plates were incubated at 37° C. and colony forming units of bacteria were counted after 24 and 48 hours. […]

Fibrinogen = biological target: T1, Fibrinogen (Homo sapiens, UniProt P02671+P02675+P02679); test: Fibrinogen, Multifibren U test; assay type: biochemical; conditions: for Fibrinogen, mean value: mean of 11 subjects
T1 construct: from tissue; host or cells: citrated whole blood of volunteers
T1 sequence (P02671 20-629 limits assumed): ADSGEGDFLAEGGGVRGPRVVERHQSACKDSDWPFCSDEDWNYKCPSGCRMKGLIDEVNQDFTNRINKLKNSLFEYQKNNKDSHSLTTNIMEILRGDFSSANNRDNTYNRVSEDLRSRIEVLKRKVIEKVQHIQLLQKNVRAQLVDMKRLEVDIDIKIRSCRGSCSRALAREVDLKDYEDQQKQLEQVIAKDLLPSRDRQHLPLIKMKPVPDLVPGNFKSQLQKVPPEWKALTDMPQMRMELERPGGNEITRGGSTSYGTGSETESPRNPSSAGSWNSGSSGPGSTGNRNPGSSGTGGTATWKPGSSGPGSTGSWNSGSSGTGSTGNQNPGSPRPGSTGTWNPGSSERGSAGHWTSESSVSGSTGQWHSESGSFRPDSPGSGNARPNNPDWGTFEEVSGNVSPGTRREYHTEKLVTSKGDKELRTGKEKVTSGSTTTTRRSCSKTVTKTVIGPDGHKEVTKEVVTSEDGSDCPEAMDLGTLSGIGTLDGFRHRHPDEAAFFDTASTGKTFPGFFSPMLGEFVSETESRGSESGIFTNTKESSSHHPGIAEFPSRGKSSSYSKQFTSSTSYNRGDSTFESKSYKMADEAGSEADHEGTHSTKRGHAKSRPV
T1 sequence (P02675 31-491): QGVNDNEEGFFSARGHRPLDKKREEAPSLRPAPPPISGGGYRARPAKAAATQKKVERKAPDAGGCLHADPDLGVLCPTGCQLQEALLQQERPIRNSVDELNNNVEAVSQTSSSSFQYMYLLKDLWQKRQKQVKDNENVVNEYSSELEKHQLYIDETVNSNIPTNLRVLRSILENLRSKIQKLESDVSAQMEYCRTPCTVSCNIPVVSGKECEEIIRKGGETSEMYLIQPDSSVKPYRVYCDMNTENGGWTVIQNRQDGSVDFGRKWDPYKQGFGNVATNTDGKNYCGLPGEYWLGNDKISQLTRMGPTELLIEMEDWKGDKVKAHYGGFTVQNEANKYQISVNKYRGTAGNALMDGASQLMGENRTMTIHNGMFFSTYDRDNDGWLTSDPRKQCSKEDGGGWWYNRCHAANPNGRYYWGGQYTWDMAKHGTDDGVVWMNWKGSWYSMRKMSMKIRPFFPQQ
T1 sequence (P02679 27-453): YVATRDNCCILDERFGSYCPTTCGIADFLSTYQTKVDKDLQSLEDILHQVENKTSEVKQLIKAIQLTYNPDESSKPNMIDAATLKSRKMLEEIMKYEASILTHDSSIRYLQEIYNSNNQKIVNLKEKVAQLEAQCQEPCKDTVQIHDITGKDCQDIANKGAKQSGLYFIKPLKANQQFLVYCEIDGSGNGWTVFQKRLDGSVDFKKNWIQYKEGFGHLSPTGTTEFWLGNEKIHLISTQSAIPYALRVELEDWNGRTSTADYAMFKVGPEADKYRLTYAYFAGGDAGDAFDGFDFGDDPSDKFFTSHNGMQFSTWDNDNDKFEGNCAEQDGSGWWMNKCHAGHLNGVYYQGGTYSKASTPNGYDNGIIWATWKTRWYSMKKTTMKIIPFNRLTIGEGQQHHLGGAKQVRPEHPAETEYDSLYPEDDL
Experimental: Whole blood was taken from a single volunteer and enriched with trisodium citrate (0.3 mL of a 0.106 molar solution per 3 mL whole blood) (S-Monovette®, Sarstedt, Nümbrecht, Germany). Portions of 1.8 mL citrate blood were mixed with 0.2 mL NCT in 0.9% saline. The following final (after dilution in blood) NCT concentrations were tested separately: 1% (55 mM); 0.5% (27.5 mM); 0.25% (13.75 mM); 0.1% (5.5 mM); 0.05% (2.75 mM); 0.025% (1.375 mM); and 0.01% (0.55 mM). A control without NCT was performed in parallel. The following commercial coagulation tests were performed according to the prescription of the manufacturer: prothrombin time (PT) was determined using Thromborel® S test (Dade Behring GmbH, Marburg, Germany), activated partial thromboplastin time (aPTT) was determined using Pathromtin* SL test (Dade Behring GmbH, Marburg, Germany); thrombin time (TT) was determined using BC Thrombin Reagent test (Dade Behring GmbH, Marburg, Germany); and fibrinogen was determined using Multifibren* U test (Dade Behring GmbH, Marburg, Germany).
Whole blood was taken from 11 volunteers and enriched with trisodium citrate (0.3 mL of a 0.106 molar solution per 3 mL whole blood) (S-Monovette®, Sarstedt, Nümbrecht, Germany). Commercial coagulation tests (as described in Example 6) were performed with the following samples: […]

## O=S(=O)(O)CCNCl [NCT, N-chlorotaurine]
[1]; 1% NCT dissolved in 100% blood plus 125 IE/mL heparin
  bactericidal activity in blood: no significant bactericidal activity was detected
[1]; 1% NCT in 10%, 25%, 50% and 75% blood plus 125 IE/mL heparin
  bactericidal activity in blood: demonstrated bactericidal activity
Fibrinogen; Example 6, single volunteer, 0.01% (0.55 mM) NCT final
  Fibrinogen: 281.4
Fibrinogen; Example 6, single volunteer, 0.025% (1.375 mM) NCT final
  Fibrinogen: 199.4
Fibrinogen; Example 6, single volunteer, 0.05% (2.75 mM) NCT final
  Fibrinogen: not detectable
Fibrinogen; Example 6, single volunteer, 0.1% (5.5 mM) NCT final
  Fibrinogen: not detectable
Fibrinogen; Example 6, single volunteer, 0.25% (13.75 mM) NCT final
  Fibrinogen: not detectable
Fibrinogen; Example 6, single volunteer, 0.5% (27.5 mM) NCT final
  Fibrinogen: not detectable
Fibrinogen; Example 6, single volunteer, 1% (55 mM) NCT final
  Fibrinogen: not detectable
Fibrinogen; Example 7, 0.01% NCT, individual subjects 1-11
  Fibrinogen: 170 mg/dL and 112 mg/dL and 240 mg/dL and 87 mg/dL and 194 mg/dL and 178 mg/dL and 226 mg/dL and 237 mg/dL and 224 mg/dL and 230 mg/dL and 215 mg/dL
Fibrinogen; Example 7, 0.01% NCT
  Fibrinogen, mean value: 192.1 mg/dL
Fibrinogen; Example 7, 0.025% NCT, individual subjects 1-11
  Fibrinogen: 40 mg/dL
Fibrinogen; Example 7, 0.025% NCT
  Fibrinogen, mean value: 40.0 mg/dL
